Experimental data published in article PMC6407917, “Identification of GSK3186899/DDD853651 as a Preclinical Development Candidate for the Treatment of Visceral Leishmaniasis” (Journal of Medicinal Chemistry, 2018).

Experiments:
Assay in all cases: biochemical
Design in all cases: species or system HEK293/K-562/placenta mixed human extract; Kinobeads chemoproteomic competition binding, quantified by TMT LC-MS/MS, dose response up to 20 uM
[1] = target: EPHA2 (Homo sapiens, UniProt P29317)
[2] = target: EPHB2 (Homo sapiens, UniProt P29323)
[3] = target: FER (Homo sapiens, UniProt P16591)
[4] = target: FGFR1 (Homo sapiens, UniProt P11362)
[5] = target: IRAK4 (Homo sapiens, UniProt Q9NWZ3)
[6] = target: LIMK1 (Homo sapiens, UniProt P53667)
[7] = target: LRRK2 (Homo sapiens, UniProt Q5S007)
[8] = target: MAP2K5 (Homo sapiens, UniProt Q13163)
[9] = target: MAP4K4 (Homo sapiens, UniProt O95819)
[10] = target: MAP4K5 (Homo sapiens, UniProt Q9Y4K4)
[11] = target: MARK1 (Homo sapiens, UniProt Q9P0L2)
[12] = target: NEK2 (Homo sapiens, UniProt P51955)
[13] = target: NEK3 (Homo sapiens, UniProt P51956)
[14] = target: PAK4 (Homo sapiens, UniProt O96013)
[15] = target: PIM3 (Homo sapiens, UniProt Q86V86)
[16] = target: PLK4 (Homo sapiens, UniProt O00444)
[17] = target: PRKX (Homo sapiens, UniProt P51817)
[18] = target: RPS6KA1 (Homo sapiens, UniProt Q15418)
[19] = target: SIK2 (Homo sapiens, UniProt Q9H0K1)
[20] = target: SYK (Homo sapiens, UniProt P43405)
[21] = target: TNK1 (Homo sapiens, UniProt Q13470)

Measured: IC50

PAK4, sequence (O96013 whole entry): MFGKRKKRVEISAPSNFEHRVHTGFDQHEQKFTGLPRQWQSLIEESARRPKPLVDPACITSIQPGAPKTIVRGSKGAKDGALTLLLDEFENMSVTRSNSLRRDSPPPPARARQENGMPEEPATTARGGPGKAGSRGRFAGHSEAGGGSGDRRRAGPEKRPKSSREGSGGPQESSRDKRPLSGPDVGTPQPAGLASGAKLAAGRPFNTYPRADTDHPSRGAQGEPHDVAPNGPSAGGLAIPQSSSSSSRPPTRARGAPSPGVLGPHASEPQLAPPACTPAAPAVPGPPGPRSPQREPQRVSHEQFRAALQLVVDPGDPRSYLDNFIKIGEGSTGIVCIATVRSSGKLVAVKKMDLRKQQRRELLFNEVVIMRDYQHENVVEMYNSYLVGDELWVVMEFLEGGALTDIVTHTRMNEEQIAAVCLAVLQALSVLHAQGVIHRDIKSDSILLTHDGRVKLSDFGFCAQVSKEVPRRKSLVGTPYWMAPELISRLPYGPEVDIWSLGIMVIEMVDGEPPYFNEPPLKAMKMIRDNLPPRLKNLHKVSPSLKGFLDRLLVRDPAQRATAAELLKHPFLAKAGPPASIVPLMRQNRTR
EPHB2, sequence (P29323 whole entry): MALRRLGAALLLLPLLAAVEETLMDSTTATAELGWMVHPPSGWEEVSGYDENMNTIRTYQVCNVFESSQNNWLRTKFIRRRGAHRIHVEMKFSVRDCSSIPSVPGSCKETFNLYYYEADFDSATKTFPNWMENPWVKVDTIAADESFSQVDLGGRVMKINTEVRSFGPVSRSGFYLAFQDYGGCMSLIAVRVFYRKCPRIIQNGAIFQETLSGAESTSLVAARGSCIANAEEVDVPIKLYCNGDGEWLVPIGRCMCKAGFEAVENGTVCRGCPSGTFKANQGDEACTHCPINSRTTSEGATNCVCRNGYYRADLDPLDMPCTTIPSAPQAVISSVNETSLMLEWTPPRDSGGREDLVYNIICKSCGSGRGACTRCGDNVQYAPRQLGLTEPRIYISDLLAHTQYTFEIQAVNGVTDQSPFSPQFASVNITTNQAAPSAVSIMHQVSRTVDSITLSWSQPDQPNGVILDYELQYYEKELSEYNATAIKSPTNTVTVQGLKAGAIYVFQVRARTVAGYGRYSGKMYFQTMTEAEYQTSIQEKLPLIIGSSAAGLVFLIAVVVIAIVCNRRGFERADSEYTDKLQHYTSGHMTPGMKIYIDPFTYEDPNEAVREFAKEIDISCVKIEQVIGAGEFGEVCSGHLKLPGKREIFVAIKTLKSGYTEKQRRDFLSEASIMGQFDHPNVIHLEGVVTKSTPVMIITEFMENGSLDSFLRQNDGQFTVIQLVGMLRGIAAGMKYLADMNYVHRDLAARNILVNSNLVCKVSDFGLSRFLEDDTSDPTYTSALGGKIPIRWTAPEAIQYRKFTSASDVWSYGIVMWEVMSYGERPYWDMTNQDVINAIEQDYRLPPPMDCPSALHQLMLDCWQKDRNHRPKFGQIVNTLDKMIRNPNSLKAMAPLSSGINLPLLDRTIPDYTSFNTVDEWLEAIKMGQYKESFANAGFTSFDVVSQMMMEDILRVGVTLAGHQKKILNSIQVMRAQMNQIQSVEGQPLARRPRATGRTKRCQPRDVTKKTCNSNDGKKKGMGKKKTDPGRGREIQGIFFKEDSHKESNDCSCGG
NEK2, sequence (P51955 whole entry): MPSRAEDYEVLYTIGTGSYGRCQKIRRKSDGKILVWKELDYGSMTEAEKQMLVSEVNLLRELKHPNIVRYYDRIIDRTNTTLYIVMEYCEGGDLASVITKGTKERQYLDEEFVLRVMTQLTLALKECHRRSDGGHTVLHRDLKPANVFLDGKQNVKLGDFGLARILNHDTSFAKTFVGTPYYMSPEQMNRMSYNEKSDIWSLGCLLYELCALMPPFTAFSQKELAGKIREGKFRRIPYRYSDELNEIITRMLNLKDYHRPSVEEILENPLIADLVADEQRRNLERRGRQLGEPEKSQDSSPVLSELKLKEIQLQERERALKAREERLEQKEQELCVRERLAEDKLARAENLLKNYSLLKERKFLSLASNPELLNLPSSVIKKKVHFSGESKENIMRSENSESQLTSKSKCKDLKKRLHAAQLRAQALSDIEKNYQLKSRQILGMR
EPHA2, sequence (P29317 whole entry): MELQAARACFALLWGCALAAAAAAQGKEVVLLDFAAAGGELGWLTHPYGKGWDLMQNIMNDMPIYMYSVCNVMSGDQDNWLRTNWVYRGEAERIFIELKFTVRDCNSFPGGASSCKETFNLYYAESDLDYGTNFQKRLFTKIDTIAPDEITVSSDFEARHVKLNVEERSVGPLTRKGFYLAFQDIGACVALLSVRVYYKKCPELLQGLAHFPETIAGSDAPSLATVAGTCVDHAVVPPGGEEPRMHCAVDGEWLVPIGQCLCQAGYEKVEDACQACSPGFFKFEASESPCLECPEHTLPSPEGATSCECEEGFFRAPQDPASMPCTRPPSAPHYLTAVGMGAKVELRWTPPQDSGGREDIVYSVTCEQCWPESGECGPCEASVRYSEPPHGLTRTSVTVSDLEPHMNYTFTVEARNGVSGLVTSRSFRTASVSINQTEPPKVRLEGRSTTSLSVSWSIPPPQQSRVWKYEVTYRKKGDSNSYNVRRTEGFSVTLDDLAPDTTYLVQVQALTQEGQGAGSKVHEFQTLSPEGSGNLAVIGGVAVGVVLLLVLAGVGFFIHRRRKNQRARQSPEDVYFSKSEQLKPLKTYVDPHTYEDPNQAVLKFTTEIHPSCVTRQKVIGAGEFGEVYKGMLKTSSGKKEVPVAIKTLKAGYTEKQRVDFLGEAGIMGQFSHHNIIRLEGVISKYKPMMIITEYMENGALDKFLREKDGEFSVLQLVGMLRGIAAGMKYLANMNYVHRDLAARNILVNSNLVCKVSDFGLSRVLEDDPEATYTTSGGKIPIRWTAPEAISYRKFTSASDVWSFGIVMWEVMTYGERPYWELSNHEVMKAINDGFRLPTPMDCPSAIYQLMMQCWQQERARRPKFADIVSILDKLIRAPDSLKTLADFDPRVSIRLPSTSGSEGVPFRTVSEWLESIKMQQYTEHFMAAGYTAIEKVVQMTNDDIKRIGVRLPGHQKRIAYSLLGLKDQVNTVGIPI
PLK4, sequence (O00444 whole entry): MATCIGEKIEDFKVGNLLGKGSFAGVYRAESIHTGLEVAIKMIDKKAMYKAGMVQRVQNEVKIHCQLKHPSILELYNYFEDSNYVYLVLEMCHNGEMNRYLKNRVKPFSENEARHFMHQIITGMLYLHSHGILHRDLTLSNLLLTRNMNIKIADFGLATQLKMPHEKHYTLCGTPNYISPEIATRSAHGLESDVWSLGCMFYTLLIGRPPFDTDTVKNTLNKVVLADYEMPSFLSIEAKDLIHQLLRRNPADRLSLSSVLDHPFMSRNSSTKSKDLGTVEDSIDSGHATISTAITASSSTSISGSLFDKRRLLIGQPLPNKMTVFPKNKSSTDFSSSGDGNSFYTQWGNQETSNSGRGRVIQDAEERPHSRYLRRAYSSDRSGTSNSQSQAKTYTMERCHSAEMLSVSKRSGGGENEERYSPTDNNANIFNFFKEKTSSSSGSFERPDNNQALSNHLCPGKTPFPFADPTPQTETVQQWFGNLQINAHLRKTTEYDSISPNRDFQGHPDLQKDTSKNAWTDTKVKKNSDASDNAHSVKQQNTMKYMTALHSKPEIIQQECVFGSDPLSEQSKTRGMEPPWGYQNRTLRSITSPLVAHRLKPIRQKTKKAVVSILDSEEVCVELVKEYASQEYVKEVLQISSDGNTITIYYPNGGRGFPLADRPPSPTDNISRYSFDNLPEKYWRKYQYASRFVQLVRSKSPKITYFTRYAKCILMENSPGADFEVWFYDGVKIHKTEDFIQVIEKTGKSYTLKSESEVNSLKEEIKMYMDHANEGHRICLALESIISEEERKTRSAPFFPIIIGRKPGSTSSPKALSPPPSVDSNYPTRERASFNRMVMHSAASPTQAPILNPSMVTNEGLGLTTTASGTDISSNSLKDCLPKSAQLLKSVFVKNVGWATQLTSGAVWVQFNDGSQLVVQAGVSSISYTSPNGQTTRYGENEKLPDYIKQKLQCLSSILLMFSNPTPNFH
MAP2K5, sequence (Q13163 whole entry): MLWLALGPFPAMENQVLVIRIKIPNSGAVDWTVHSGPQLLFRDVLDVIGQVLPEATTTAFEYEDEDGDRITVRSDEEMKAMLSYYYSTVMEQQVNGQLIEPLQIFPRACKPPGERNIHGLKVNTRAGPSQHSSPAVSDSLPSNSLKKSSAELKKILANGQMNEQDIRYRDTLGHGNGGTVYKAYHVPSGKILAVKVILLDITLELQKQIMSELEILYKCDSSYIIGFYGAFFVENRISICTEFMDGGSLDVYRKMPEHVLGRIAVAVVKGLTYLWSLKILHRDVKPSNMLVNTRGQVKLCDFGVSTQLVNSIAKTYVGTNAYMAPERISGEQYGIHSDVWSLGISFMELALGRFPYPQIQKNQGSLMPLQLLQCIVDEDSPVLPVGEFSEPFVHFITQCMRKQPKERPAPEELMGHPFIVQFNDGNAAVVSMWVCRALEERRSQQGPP

COc1nc(N[C@H]2CC[C@H](NS(=O)(=O)CC(C)C)CC2)nc2[nH]nc(N3CCOC[C@H]3C)c12 [compound 39, N-(trans-4-((4-Methoxy-3-((R)-3-methylmorpholino)-1H-pyrazolo[3,4-d]pyrimidin-6-yl)amino)cyclohexyl)-2-methylpropane-1-sulfonamide]
≥ 20 µM: all assays above
